The text below walks through data of patent publication US20220370464A1, “COMPOSITIONS AND METHODS OF TREATING OR PREVENTING OCULAR INFECTIONS WITH FILOCICLOVIR” (Microbiotix, Inc., priority 2019, published 2022).

Like-named read-outs stand apart in the source and are kept apart here.

For orientation: EC50 means the concentration at which the effect is half-maximal. The IC50 is the concentration needed to halve the response being measured.

Data set [1] deals with AdV 7. Nature of the data set: Antiviral EC50 against AdV 7 (method not given). In kind it is cell-based, adenovirus 7. The conditions noted are these: Human mastadenovirus B; AdV 7, summary table.
Data set [2] relates to AdV 8. Nature of the data set: Antiviral EC50 against AdV 8 (method not given). Format: cell-based, adenovirus 8. To be noted: unidentified adenovirus; AdV 8, summary table.
In data set [3] the test system is AdV6. The experiment in a line: Therapeutic efficacy against intravenous AdV6 in immunosuppressed male Syrian hamsters. The conditions noted are these: for mortality / survival (FIG. 6A): AdV6-infected hamsters; for virus burden in the liver (FIG. 8) / serum transaminase (ALT) levels (FIG. 7): 5 days post challenge. As for the experimental part:
Four dose levels were tested: 10, 30, 60 and 100 mg/kg p.o. q.d. The highest dose was determined based on rat toxicology data.
All hamsters were immunosuppressed using cyclophosphamide (CP). CP was administered intraperitoneally at a dose of 140 mg/kg, and then twice weekly at a dose of 100 mg/kg.
Filociclovir, in powdered form, was suspended in 0.4% carboxymethyl cellulose (Sigma C5678, Lot #SLBS7273) at 1, 3, 6, and 10 mg/ml and sonicated to visual homogeneity and aliquots stored at 4° C. Aliquots were allowed to equilibrate to room temperature before dosing. Hamsters weighing approximately 100 g were dosed with a 1 ml volume of the appropriate suspension for the 10, 30, 60, and 100 mg/kg dose levels.
The hamsters were divided into 8 groups, 15 hamsters/group, (with the exception of Group 2, which had only 5 hamsters; see Table 3), immunosuppressed, and then injected i.v. with vehicle (Groups 1-2) or 2×10^10 PFU/kg of AdV6 (Groups […]). Groups 1 and 3 received drug vehicle (p.o. q.d.), Group 4 received 10 mg/kg filociclovir (p.o. q.d.), Group 5 received 30 mg/kg filociclovir (p.o. q.d.), Group 6 received 60 mg/kg filociclovir (p.o. q.d.), Groups 2 and 7 received 100 mg/kg filociclovir (p.o. q.d.), and Group 8 received cidofovir (20 mg/kg, 3 times weekly). For all groups, drug administration started 1 day before challenge, and continued according to the schedule above for the duration of the study.
The body weights and any signs of morbidity of the animals were recorded daily. At 5 days post challenge, 5 hamsters (designated at the start of the experiment) from each group (with the exception of Group 2) were sacrificed, and gross pathological observation was performed. Serum and liver samples were collected and the virus burden in liver was determined by a TCID50 assay, and the serum was analyzed for transaminase levels. The remaining 10 hamsters were sacrificed at 14 days post challenge. Hamsters that became visually moribund before Day 14 were sacrificed as needed. In addition to the hamsters observed to be moribund, all hamsters that lost more than 20% of their original body weight were also sacrificed. For the hamsters sacrificed at the conclusion of the experiment and those sacrificed as moribund, serum and liver tissues were collected and banked for possible determination of serum transaminase levels and virus burden in the liver. Liver tissue was preserved in formalin for possible histopathological examination.
As such, there were two endpoints for the study: One, collected from ten animals, was survival and body weight gain/loss (with the option of assaying virus burden in the liver and serum transaminase levels). The other, collected from 5 animals for the Day 5 time point, was virus burden in the liver and serum transaminase levels.

Data set [4] has as its system AdV7a. Nature of the data set: Plaque reduction antiviral IC50 assay in A549, AdV7a. In kind it is cell-based, adenovirus 7a. The conditions noted are these: unidentified adenovirus. As to the method: The effectiveness of filociclovir to inhibit a number of adenovirus strains associated with conjunctivitis were tested in an in vitro assay. To determine the in vitro IC50 concentrations, i.e., the concentration of filociclovir that inhibits adenovirus plaque formation by 50%, filociclovir and cidofovir (CDV) were tested against a panel of 7 ocular types of adenovirus.
42 A549 24-well multiplates (1 per each drug and each virus strain) were prepared. 7 adenovirus serotypes were tested at a time. Virus dilutions from known titer of stock viruses (approx. 100 PFU/0.1 ml) were prepared with AdV3 L, AdV4 H, AdV5 M, AdV7a J, AdV8 E, AdV 19/64 K, and AdV37 ATCC. 0.1 ml (containing approx. 100 PFU) of each of the 7 viruses were plated onto all 24 wells of an A549 multiplate and incubated at 37° C. in a 5% CO2 water-vapor atmosphere for 3 hours.
Dilutions of filociclovir and cidofovir were prepared at 400, 40, 4.0, 0.4, 0.04, and 0.004 μM in 2× nutrient tissue culture media, following the dilution protocol: 7.5 ml of each of filociclovir and cidofovir dilution was added to a tube and 22.5 ml of methylcellulose in outgrowth medium (OG) was then added to each tube. 1 ml of each filociclovir and cidofovir dilutions was added to an additional 15 ml tube and 3 ml of OG was added to each tube. This was the overlay for the Adv8 plates. Normal methylcellulose overlay medium without any drug was used for the control wells for each plate.
For each virus plate, 3 wells were overlaid with each of the 6 final filociclovir and cidofovir concentrations (100, 10, 1.0, 0.1, 0.01, and 0.001 μM) and 6 wells with the control media. Plates were incubated at 37° C. in a 5% CO2 water-vapor atmosphere until plaques were visible. When plaques became visible, plates were stained with gentian violet and plaques were counted at 25λ using a dissecting microscope. The IC50 concentrations were determined from Fitted Line Plot regression analysis using Minitab. All assays were performed in triplicate.

Data set [5] relates to HHV-6A. To be noted: β Herpesvirus, cited from earlier work.
In data set [6] the test system is HHV-6B. To be noted: cited from earlier work.
Data set [7] concerns VZV. To be noted: α Herpesvirus, cited from earlier work.
The subject of data set [8] is BK Virus. The conditions noted are these: Polyomavirus, cited from earlier work.
In data set [9] the test system is ocular AdV infections. The conditions noted are these: literature, cited from earlier work.

Take `Nc1nc2c(ncn2/C=C2/CC2(CO)CO)c(=O)[nH]1` [Filociclovir, 2-amino-9-{(Z)-[2,2-bis(hydroxymethyl)cyclopropylidene]methyl}-3,9-dihydro-6H-purin-6-one]: the EC50 in data set [1] was 1000 nM; in data set [2], 2000 nM; in data set [5] (listed as filociclovir), not above 10000 nM; in data set [5], 1300 nM; in [6], 2300 ± 1000 nM; in [6] (listed as filociclovir), not above 10000 nM. In addition, the EC50 was not above 10000 nM in data set [7] (listed as filociclovir), 1500 ± 1600 nM in [7], not above 50000 nM in data set [8] (listed as filociclovir) and 34000 ± 17000 nM in data set [8]. The “body weight loss (FIG. 6B)” value in data set [3] (10 mg/kg p.o. q.d.) and in data set [3] (30 mg/kg p.o. q.d.) was “reversed” in each case. Besides, the “mortality / survival (FIG. 6A)” value in data set [3] (10 mg/kg p.o. q.d.) and in data set [3] (30 mg/kg p.o. q.d.) was “prevented mortality” each time. The “toxicity for AdV6-infected hamsters” value in data set [3] (60 mg/kg p.o. q.d.) and in data set [3] (100 mg/kg p.o. q.d.) was “toxic” in each case. Also, the “virus burden in the liver (FIG. 8)” value in data set [3] (10 mg/kg p.o. q.d.) is “one animal in the AdV6+10 mg/kg filociclovir group with a very low liver virus burden”; in data set [3] (30 mg/kg p.o. q.d.) it was “nondetectable level”. In addition, in data set [3] (filociclovir-treated animals), the “serum transaminase (ALT) levels (FIG. 7)” value is on record as “none of the filociclovir- or CDV-treated animals had elevated serum transaminase levels”. The “necropsy finding at day 5 sacrifice” value in data set [3] (AdV6+60 mg/kg p.o. q.d.) and in [3] (AdV6+100 mg/kg p.o. q.d.) was “extensive kidney pathology” in each case. The 50% inhibitory concentration (IC50) in data set [4] (read-out: Mean IC50) was found to be 2120 nM; in [4] (read-out: Median IC50) it was 769 nM.

With `Nc1ccn(C[C@@H](CO)OCP(=O)(O)O)c(=O)n1` [CDV, cidofovir, reference compound], the “serum transaminase (ALT) levels (FIG. 7)” value in [3] (20 mg/kg i.p. 3x weekly) is “none of the filociclovir- or CDV-treated animals had elevated serum transaminase levels”. The “virus burden in the liver (FIG. 8)” value in data set [3] (20 mg/kg i.p. 3x weekly) is reported as “very low to nonquantifiable levels”. Also, the IC50 worked out at 1810 nM in data set [4] (read-out: Mean IC50) and 617 nM in data set [4] (read-out: Median IC50). For the same compound, the ocular toxicity result in [9] (even at low doses) is on record as “substantial ocular toxicity”. In addition, the “improvement in the symptoms or course of the disease” value in data set [9] (ocular AdV infections) was “not exhibited a statistically significant improvement”.
